Measured values published in ChEMBL document CHEMBL5126678, “A New Naphthopyran Derivative Combines c-Myb Inhibition, Microtubule-Targeting Effects, and Antiangiogenic Properties” (ACS Med Chem Lett, 2022).
Active and inactive are the calls of the source. The rule behind the calls is not given here.

Columns and labels:
[1] = biological target: Transcriptional activator Myb (Homo sapiens, UniProt P10242); assay: Inhibition of c-Myb (unknown origin) expressed in HEK293T cells measured after 16 hrs by steady-glo luciferase reporter gene assay; format: cell-based
[2] = Cytotoxicity against human EA.hy 926 cells assessed as reduction in cell viability measured after 72 hrs by MTT assay; format: toxicity, cell-based
HT-29 = assay: Cytotoxicity against human HT-29 cells assessed as reduction in cell viability measured after 72 hrs by MTT assay; format: functional, cell-based; conditions: HT-29, 72 h
HeLa = assay: Cytotoxicity against human HeLa cells assessed as reduction in cell viability measured after 72 hrs by MTT assay; format: functional, cell-based
Tubulin (Homo sapiens) [3] = biological target: T1, Tubulin (Homo sapiens) (UniProt P68371+Q9H4B7+P0DPH7+P68366+Q13509+Q71U36+P04350+Q3ZCM7+P07437+P68363+Q9BQE3+Q6PEY2+Q13885+Q9BVA1+Q9BUF5); assay: Induction of microtubule fragmentation in human 518A2 cells assessed as appearance of area with dorsal stress fibre at 25 nM measured after 24 hrs by immunofluorescence assay; format: cell-based
KB-V1 [4] = assay: Cytotoxicity against human multidrug-resistant KB-V1 cells assessed as reduction in cell viability measured after 72 hrs by MTT assay; format: functional, cell-based; conditions: KB-V1, 72 h
HCT-116 [5] = assay: Cytotoxicity against p53-deficient human HCT-116 cells assessed as reduction in cell viability measured after 72 hrs by MTT assay; format: functional, cell-based; conditions: HCT-116, 72 h
KB-V1 [6] = assay: Cytotoxicity against human multidrug-resistant KB-V1 cells assessed as reduction in cell viability measured after 72 hrs in presence of verapamil by MTT assay; format: functional, cell-based; conditions: KB-V1, 72 h
HCT-116 [7] = assay: Cytotoxicity against human HCT-116 cells assessed as reduction in cell viability measured after 72 hrs by MTT assay; format: functional, cell-based; conditions: HCT-116, 72 h
[8] = Cytotoxicity against HDFa cells assessed as reduction in cell viability at 0.0005 to 100 uM measured after 72 hrs by MTT assay; format: toxicity, cell-based; conditions: human, dose 0.0005-100 µM
518A2 [9] = assay: Cytotoxicity against human 518A2 cells assessed as reduction in cell viability measured after 72 hrs by MTT assay; format: functional, cell-based; conditions: 518A2, 72 h
518A2 [10] = assay: Cell cycle arrest in human […] cells assessed as increase in accumulation at sub-G1 phase at 25 nM measured after 6 to 24 hrs by propidium iodide staining based FACS analysis; format: functional; conditions: time 6-24 hrs
Tubulin (Homo sapiens) [11] = biological target: T1, Tubulin (Homo sapiens); assay: Induction of microtubule fragmentation in human 518A2 cells at 25 nM measured after 24 hrs by immunofluorescence assay; format: cell-based
[12] = biological target: Caspase-3/Caspase-7 (Homo sapiens) (UniProt P42574+P55210); assay: Activation of caspase-3/7 activity in human 518A2 cells at 25 nM preincubated for 24 hrs followed by caspase-3/7 fluorogenic substrate addition and measured after 60 mins by fluorescence assay; format: cell-based; conditions: filed as activator, time 25.0 hrs
[13] = Cytotoxicity against human U-87 cells assessed as reduction in cell viability measured after 72 hrs by MTT assay; format: functional, cell-based, U-87MG ATCC; conditions: U-87 MG
Sus scrofa = organism: Sus scrofa; assay: Inhibition of porcine brain tubulin polymerization at 5 uM measured at 10 mins interval for 100 mins by turbidimetric assay; format: tissue-based
518A2 [14] = assay: Cell cycle arrest in human […] cells assessed as increase in accumulation at G2/M phase at 25 nM measured after 6 to 24 hrs by propidium iodide staining based FACS analysis; format: functional; conditions: time 6-24 hrs
[15] = Effect on angiogenic activity in 24 hrs post-fertilized fil1/EGFP transgenic zebrafish embryo assessed as subintestinal vessel area at 100 nM measured after 48 hrs by fluorescence microscopy (reference value: 100%); format: toxicity, Danio rerio; conditions: 0.1 µM
Tubulin (Homo sapiens) [16] = biological target: T1, Tubulin (Homo sapiens); assay: Induction of microtubule fragmentation in human 518A2 cells assessed as appearance of area with transverse arcs at 25 nM measured after 24 hrs by immunofluorescence assay; format: cell-based
MCF7 = assay: Cytotoxicity against human MCF7 cells assessed as reduction in cell viability measured after 72 hrs by MTT assay; format: functional, cell-based; conditions: MCF7, 72 h
[17] = Effect on angiogenic activity in human EA.hy 926 cells assessed as reduction in vessel like 2D structure at 25 nM measured after 5 hrs by light microscopy; format: toxicity, cell-based; conditions: ea.hy 926, 5 h, 0.025 µM
[18] = Hydrolytic stability of compound in DMSO-d6/D2O measured after 7 days by 1H-NMR analysis; format: physicochemical; conditions: 168 h; time 7 day

Sequence of Caspase-3/Caspase-7 (Homo sapiens) (P42574 whole entry, looked up): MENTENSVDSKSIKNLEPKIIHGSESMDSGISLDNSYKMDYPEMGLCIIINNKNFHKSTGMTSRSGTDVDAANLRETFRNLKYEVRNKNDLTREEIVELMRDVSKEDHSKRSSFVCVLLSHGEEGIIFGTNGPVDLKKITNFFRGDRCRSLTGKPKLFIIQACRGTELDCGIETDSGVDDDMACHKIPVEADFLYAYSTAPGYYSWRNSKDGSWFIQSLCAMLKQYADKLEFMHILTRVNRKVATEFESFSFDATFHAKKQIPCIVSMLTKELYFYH
Sequence of Caspase-3/Caspase-7 (Homo sapiens) (P55210 whole entry, looked up): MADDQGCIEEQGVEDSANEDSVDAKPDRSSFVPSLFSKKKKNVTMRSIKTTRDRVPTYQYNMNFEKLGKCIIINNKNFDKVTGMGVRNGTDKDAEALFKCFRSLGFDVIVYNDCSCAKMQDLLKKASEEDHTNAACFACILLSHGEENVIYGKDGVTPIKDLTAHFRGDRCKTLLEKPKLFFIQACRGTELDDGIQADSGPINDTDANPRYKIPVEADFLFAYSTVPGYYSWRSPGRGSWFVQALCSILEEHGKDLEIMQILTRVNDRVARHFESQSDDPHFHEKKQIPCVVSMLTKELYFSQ
Sequence of Transcriptional activator Myb (P10242 whole entry): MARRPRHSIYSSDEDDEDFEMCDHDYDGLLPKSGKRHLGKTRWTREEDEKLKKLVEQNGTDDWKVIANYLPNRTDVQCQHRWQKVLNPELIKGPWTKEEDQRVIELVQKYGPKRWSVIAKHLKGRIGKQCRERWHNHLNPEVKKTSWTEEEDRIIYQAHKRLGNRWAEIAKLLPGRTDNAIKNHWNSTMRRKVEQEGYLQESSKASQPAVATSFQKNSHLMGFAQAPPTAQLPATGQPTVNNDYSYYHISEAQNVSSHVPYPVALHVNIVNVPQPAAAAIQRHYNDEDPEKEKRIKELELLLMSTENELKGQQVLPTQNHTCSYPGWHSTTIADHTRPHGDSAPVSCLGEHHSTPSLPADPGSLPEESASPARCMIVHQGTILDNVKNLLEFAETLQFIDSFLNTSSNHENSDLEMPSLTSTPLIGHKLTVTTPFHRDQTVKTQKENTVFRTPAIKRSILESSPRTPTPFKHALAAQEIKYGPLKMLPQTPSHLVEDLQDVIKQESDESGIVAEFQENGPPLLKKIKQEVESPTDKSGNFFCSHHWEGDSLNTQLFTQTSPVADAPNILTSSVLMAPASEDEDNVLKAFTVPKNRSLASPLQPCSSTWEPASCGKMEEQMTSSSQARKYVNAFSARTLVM

CSc1ccc(C2C(C#N)=C(N)Oc3c2ccc2ccccc32)cc1F (stereo not drawn)
IC50 [1]: 0.24 µM

CCOc1c(OC)cc(C2C(C#N)=C(N)Oc3c2ccc2ccccc32)cc1OC (stereo not drawn)
IC50 at 72 h [2]: 0.0062 µM | IC50 [1]: 0.014 µM | IC50 (HT-29): 0.269 µM | IC50 (HeLa): 0.0219 µM | Activity (Tubulin (Homo sapiens) [3]): Active | IC50 (KB-V1 [4]): 0.0209 µM | IC50 (HCT-116 [5]): 0.0131 µM | IC50 (KB-V1 [6]): 0.0165 µM | IC50 (HCT-116 [7]): 0.0227 µM | Activity [8]: Toxic | IC50 (518A2 [9]): 0.025 µM | Activity (518A2 [10]): Active | Activity (Tubulin (Homo sapiens) [11]): Active | Activity [12]: Active | IC50 [13]: 0.0106 µM | inhibition (Sus scrofa): Active | Activity (518A2 [14]): Active | Activity [15]: 78.1% | Activity (Tubulin (Homo sapiens) [16]): Active | IC50 (MCF7): 0.0281 µM

CCCOc1c(OC)cc(C2C(C#N)=C(N)Oc3c2ccc2ccccc32)cc1OC (stereo not drawn)
IC50 at 72 h [2]: 0.0119 µM | IC50 [1]: 0.03 µM | IC50 (HT-29): 0.284 µM | IC50 (HeLa): 0.0331 µM | Activity (Tubulin (Homo sapiens) [3]): Active | IC50 (KB-V1 [4]): 0.0231 µM | IC50 (HCT-116 [5]): 0.0331 µM | IC50 (KB-V1 [6]): 0.0163 µM | IC50 (HCT-116 [7]): 0.0685 µM | Activity [8]: Toxic | IC50 (518A2 [9]): 0.0261 µM | Activity (518A2 [10]): Active | Activity (Tubulin (Homo sapiens) [11]): Active | Activity [12]: Active | IC50 [13]: 0.0274 µM | inhibition (Sus scrofa): Active | Activity [17]: Toxic | Activity (518A2 [14]): Active | Activity [15]: 74.5% | Activity (Tubulin (Homo sapiens) [16]): Active | IC50 (MCF7): 0.0214 µM

CCCCCOc1c(OC)cc(C2C(C#N)=C(N)Oc3c2ccc2ccccc32)cc1OC (stereo not drawn)
IC50 [1]: 0.4 µM

N#CC1=C(N)Oc2c(ccc3ccccc23)C1c1cccc([N+](=O)[O-])c1 (stereo not drawn)
IC50 at 72 h [2]: 0.0295 µM | IC50 [1]: 0.0087 µM | IC50 (HT-29): 0.0321 µM | IC50 (HeLa): 0.0361 µM | IC50 (KB-V1 [4]): 0.0237 µM | IC50 (HCT-116 [5]): 0.0282 µM | IC50 (KB-V1 [6]): 0.0761 µM | IC50 (HCT-116 [7]): 0.00757 µM | IC50 (518A2 [9]): 0.0108 µM | IC50 [13]: 0.0677 µM | IC50 (MCF7): 0.182 µM | Stability [18]: Stable

COc1ccc(C2C(C#N)=C(N)Oc3c2ccc2ccccc32)cc1 (stereo not drawn)
IC50 [1]: 3.7 µM

COc1ccc(C2C(C#N)=C(N)Oc3c2ccc2ccccc32)cc1C (stereo not drawn)
IC50 [1]: 0.4 µM

COc1cc(C2C(C#N)=C(N)Oc3c2ccc2ccccc32)c(Br)c(OC)c1OC (stereo not drawn)
IC50 [1]: 0.13 µM

COc1ccc(/C=C\c2cc(OC)c(OC)c(OC)c2)cc1O [COMBRETASTATIN A4]
Activity (Tubulin (Homo sapiens) [3]): Active | Activity (Tubulin (Homo sapiens) [11]): Active | inhibition (Sus scrofa): Active | Activity (518A2 [14]): Active | Activity (Tubulin (Homo sapiens) [16]): Active | Stability [18]: Unstable

Cc1ccc(C2C(C#N)=C(N)Oc3c2ccc2ccccc32)cc1 (stereo not drawn)
IC50 [1]: 0.43 µM

COc1cc(C2C(C#N)=C(N)Oc3c2ccc2ccccc32)ccc1OCc1ccccc1 (stereo not drawn)
IC50 [1]: 1 µM

CCCCOc1c(OC)cc(C2C(C#N)=C(N)Oc3c2ccc2ccccc32)cc1OC (stereo not drawn)
IC50 at 72 h [2]: 0.078 µM | IC50 [1]: 0.03 µM | IC50 (HT-29): 0.671 µM | IC50 (HeLa): 0.0989 µM | Activity (Tubulin (Homo sapiens) [3]): Active | IC50 (KB-V1 [4]): 0.0845 µM | IC50 (HCT-116 [5]): 0.172 µM | IC50 (KB-V1 [6]): 0.0416 µM | IC50 (HCT-116 [7]): 0.0674 µM | Activity [8]: Toxic | IC50 (518A2 [9]): 0.143 µM | Activity (Tubulin (Homo sapiens) [11]): Active | Activity [12]: Active | IC50 [13]: 0.0463 µM | inhibition (Sus scrofa): Active | Activity [15]: 87.6% | Activity (Tubulin (Homo sapiens) [16]): Active | IC50 (MCF7): 0.103 µM

COc1ccc(C2C(C#N)=C(N)Oc3c2ccc2ccccc32)cc1OC (stereo not drawn)
IC50 [1]: 0.04 µM

N#CC1=C(N)Oc2c(ccc3ccccc23)C1c1ccc(Cl)c(F)c1 (stereo not drawn)
IC50 [1]: 0.016 µM

COc1ccc(C2C(C#N)=C(N)Oc3c2ccc2ccccc32)cc1Br (stereo not drawn)
IC50 [1]: 0.42 µM

C=CCOc1c(OC)cc(C2C(C#N)=C(N)Oc3c2ccc2ccccc32)cc1OC (stereo not drawn)
IC50 at 72 h [2]: 0.0157 µM | IC50 [1]: 0.014 µM | IC50 (HT-29): 0.395 µM | IC50 (HeLa): 0.0222 µM | Activity (Tubulin (Homo sapiens) [3]): Active | IC50 (KB-V1 [4]): 0.0187 µM | IC50 (HCT-116 [5]): 0.0159 µM | IC50 (KB-V1 [6]): 0.0159 µM | IC50 (HCT-116 [7]): 0.193 µM | Activity [8]: Toxic | IC50 (518A2 [9]): 0.0036 µM | Activity (518A2 [10]): Active | Activity (Tubulin (Homo sapiens) [11]): Active | Activity [12]: Active | IC50 [13]: 0.0057 µM | inhibition (Sus scrofa): Active | Activity (518A2 [14]): Active | Activity [15]: 31.3% | Activity (Tubulin (Homo sapiens) [16]): Active | IC50 (MCF7): 0.0433 µM

N#CC1=C(N)Oc2c(ccc3ccccc23)C1c1cccc(S(F)(F)(F)(F)F)c1 (stereo not drawn)
IC50 [1]: 0.13 µM

CNC(=O)c1ccccc1Sc1ccc2c(/C=C/c3ccccn3)n[nH]c2c1 [AXITINIB]
Activity [15]: 19.6%

N#CC1=C(N)Oc2c(ccc3ccccc23)C1c1ccc(C#N)cc1 (stereo not drawn)
IC50 [1]: 0.39 µM

CCOc1c(I)cc(C2C(C#N)=C(N)Oc3c2ccc2ccccc32)cc1OC (stereo not drawn)
IC50 [1]: 0.05 µM

COc1cc(C2C(C#N)=C(N)Oc3c2ccc2ccccc32)cc(OC)c1OC(C)C (stereo not drawn)
IC50 at 72 h [2]: 0.0658 µM | IC50 [1]: 0.06 µM | IC50 (HT-29): 4.31 µM | IC50 (HeLa): 0.072 µM | IC50 (KB-V1 [4]): 0.089 µM | IC50 (HCT-116 [5]): 0.137 µM | IC50 (KB-V1 [6]): 0.105 µM | IC50 (HCT-116 [7]): 0.274 µM | Activity [8]: Toxic | IC50 (518A2 [9]): 0.266 µM | Activity (518A2 [10]): Active | Activity [12]: Active | IC50 [13]: 0.0531 µM | inhibition (Sus scrofa): Active | Activity (518A2 [14]): Active | Activity [15]: 80.9% | IC50 (MCF7): 0.265 µM

N#CC1=C(N)Oc2c(ccc3ccccc23)C1c1ccc(S(F)(F)(F)(F)F)cc1 (stereo not drawn)
IC50 [1]: 3.2 µM

N#CC1=C(N)Oc2c(ccc3ccccc23)C1c1cc(F)c(F)c(F)c1 (stereo not drawn)
IC50 [1]: 0.07 µM

CCOc1c(Br)cc(C2C(C#N)=C(N)Oc3c2ccc2ccccc32)cc1OC (stereo not drawn)
IC50 [1]: 0.0368 µM

COc1ccc(C2C(C#N)=C(N)Oc3c2ccc2ccccc32)cc1[N+](=O)[O-] (stereo not drawn)
IC50 [1]: 0.11 µM

CSc1ccc(C2C(C#N)=C(N)Oc3c2ccc2ccccc32)cc1 (stereo not drawn)
IC50 [1]: 0.21 µM
